Like-named read-outs stand apart in the source and are kept apart here.
Legend:
aldosterone = experiment: aldosterone-antagonistic properties in adrenalectomised rats (urine volume, sodium and potassium excretion); format: in vivo, adrenalectomised female Holtzmann rats; settings: for response vs control in vivo at 1 mg/kg / response vs control in vivo at 10 mg/kg / response vs control in vivo at 3 mg/kg / response vs control in vivo at 0.1 mg/kg: Rattus norvegicus, po
Protocol: If benzodiazepine derivatives of formula I are administered to the animals before the treatment with aldosterone, then there is observed, in comparison with the animals which are treated only with aldosterone (control animals), a pronounced increase of the sodium excretion (i.e. the sodium retention caused by aldosterone is antagonised), whereas the potassium excretion and the urine volume are influenced to a lesser extent.
The standard experiment is carried out as follows:
Female Holtzmann rates (150-180 g) are bilaterally adrenalectomised 70 to 74 hours before the beginning of the experiment. After the operation, the animals receive a customary rat dry feed and 0.9% sodium chloride solution for drinking. 16-17 hours before the beginning of the experiment the feed is removed from the animals, but they can still drink, as before, 0.9% sodium chloride solution ad libitum. At the beginning of the experiment the substance to be tested as an aldosterone-antagonist is administered to the animals by means of a stomach probe. 30 minutes later the animals receive a subcutaneous injection of […] of aldosterone. After a further 90 minutes, the urinary bladders of the animals are emptied by careful suprapublic pressure, whereupon the animals are placed individually in metabolic cages without food and without drink. The urine of the animals is then collected for 3hours, whereupon their urinary bladders are once more emptied. The spontaneously excreted urine and the remaining urine obtained at the conclusion of the experiment by pressing-out the urinary bladders are collected in graduated centrifuge glasses. Sodium and potassium concentrations in the urine are determined with a flame photometer.
(§1) The following Table contains results obtained in the previously described experiment with representative benzodiazepine derivatives of formula I. In this Table there are given for each benzodiazepine derivative in question the dosage administered (in mg/kg p.o.) as well as the percentage variation in the urine volume, the sodium excretion and the potassium excretion in comparison with the control animals (i.e. in comparison with the animals treated only with aldosterone). Moreover, the Table contains data relating to the acute toxicity of the benzodiazepine derivatives investigated (LD 50 in mg/kg in the case of a single oral administration to mice).

[1] = acute toxicity, single oral administration to mice; settings: mouse, in vivo, p.o.
Source text: as §1

[2] = tested on: intestinal resorption of cholesterol; experiment: inhibition of the intestinal resorption of cholesterol (cholesterol recovery, CHOREC); format: in vivo, normal female Fullinsdorf albino rats; settings: rats
Protocol: The compounds to be tested are administered to groups of 6 normal female Fullinsdorf albino rats (body weight about 70 g) by oral intubation. This is followed immediately by oral intubation of a test meal containing radioactive cholesterol. Consecutively, feces are collected for three days, freeze dried and pulverized. An aliquot is burned for evaluation of fecal radioactivity. Controls excrete about 40-50% of the dietary radioactive cholesterol called cholesterol recovery (CHOREC) and arbitrarily set 100%. Animals treated with a substance inhibiting the intestinal resorption of cholesterol show a higher excretion of radioactive cholesterol in comparison with controls. The cholesterol recovery (CHOREC) of treated animals is expressed in % of controls.
(§2) The following Table contains results obtained with the aforementioned particularly preferred compounds inhibiting the intestinal resorption of cholesterol. For each of these compounds there are given the dose(s) administered (in μMol/kg p.o) as well as the cholesterol recovery (CHOREC), expressed in % of controls. Moreover, the Table contains data relating to the acute toxicity of the compounds investigated (LD 50 in mg/kg in the case of a single oral administration to rats): […]

[3] = acute toxicity, single oral administration to rats; settings: rat, in vivo, p.o.
Source text: as §2

[4] = read-out: potassium excretion [K+], in %, based on control animals
[5] = read-out: sodium excretion [Na+], in %, based on control animals
[6] = read-out: urine volume, in %, based on control animals
[7] = aldosterone alone, in comparison with untreated animals

Compound	response vs control in vivo at 1 mg/kg (aldosterone; [4]) [%]	response vs control in vivo at 10 mg/kg (aldosterone; [4]) [%]	response vs control in vivo at 1 mg/kg (aldosterone; [5]) [%]	response vs control in vivo at 10 mg/kg (aldosterone; [5]) [%]	response vs control in vivo at 1 mg/kg (aldosterone; [6]) [%]	response vs control in vivo at 10 mg/kg (aldosterone; [6]) [%]	LD50 [1] [mg/kg]	also measured
CC(CO)NC(=O)Nc1ccc2c(c1)C(c1ccccc1F)=NCC(=O)N2C (racemic) [Example 8, rac-1-[5-(o-fluorophenyl)-2,3-dihydro-1-methyl-2-oxo-1H-1,4-benzodiazepin-7-yl]-3-(2-hydroxy-1-methylethyl)urea]	80	129	127	452	73	200	> 5000	
CC1N=C(c2ccccc2Cl)c2c(ccc(NC(=O)NCCO)c2Br)N(C)C1=O (racemic) [Example 48, rac-1-[6-bromo-5-(o-chlorophenyl)-2,3-dihydro-1,3-dimethyl-2-oxo-2H-1,4-benzodiazepin-7-yl]-3-(2-hydroxyethyl)urea]								cholesterol recovery (CHOREC), in % of controls ([2]; 10 μMol/kg p.o.): 150%; cholesterol recovery (CHOREC), in % of controls ([2]; 30 μMol/kg p.o.): 157%; cholesterol recovery (CHOREC), in % of controls ([2]; 100 μMol/kg p.o.): 168%; cholesterol recovery (CHOREC), in % of controls ([2]; 1000 μMol/kg p.o.): 187%; LD50 [3]: > 5000 mg/kg
CC1N=C(c2ccccc2Cl)c2c(ccc(NC(=O)NCCO)c2Cl)N(C)C1=O (racemic) [Example 49, rac-1-[6-chloro-5-(o-chlorophenyl)-2,3-dihydro-1,3-dimethyl-2-oxo-1H-1,4-benzodiazepin-7-yl]-3-(2-hydroxyethyl)urea]								cholesterol recovery (CHOREC), in % of controls ([2]; 1000 μMol/kg p.o.): 188%; LD50 [3]: > 5000 mg/kg
CNC(=O)Nc1ccc2c(c1)C(c1ccccc1F)=NCC(=O)N2C [Example 1, 1-[5-(o-Fluorophenyl)-2,3-dihydro-1-methyl-2-oxo-1H-1,4-benzodiazepin-7-yl]-3-methylurea]							> 5000	response vs control in vivo at 3 mg/kg (aldosterone; [4]): 84%; response vs control in vivo at 3 mg/kg (aldosterone; [5]): 182%; response vs control in vivo at 3 mg/kg (aldosterone; [6]): 95%
CN1C(=O)CN=C(c2ccccc2F)c2cc(NC(=O)NC(C)(C)C)ccc21 [Example 2, 1-tert.butyl-3-[5-(o-fluorophenyl)-2,3-dihydro-1-methyl-2-oxo-1H-1,4-benzodiazepin-7-yl]urea]	132	70	236	234	194	105	600 to 1200	
CN1C(=O)CN=C(c2ccccc2F)c2cc(NC(=O)NCc3ccccc3)ccc21 [Example 3, 1-benzyl-3-[5-(o-fluorophenyl)-2,3-dihydro-1-methyl-2-oxo-1H-1,4-benzodiazepin-7-yl]urea]	153		255		139		> 5000	
CCN(C)C(=O)Nc1ccc2c(c1)C(c1ccccc1F)=NCC(=O)N2C [Example 4, 1-ethyl-3-[5-(o-fluorophenyl)-2,3-dihydro-1-methyl-2-oxo-1H-1,4-benzodiazepin-7-yl]-1-methylurea]	97		291		100		> 5000	
CN1C(=O)CN=C(c2ccccc2F)c2cc(NC(=O)N3CC3)ccc21 [Example 5, N-[5-(o-fluorophenyl)-2,3-dihydro-1-methyl-2-oxo-1H-1,4-benzodiazepin-7-yl]-1-aziridinecarboxamide]	146	108	294	237	192	129	> 5000	
CN1C(=O)CN=C(c2ccccc2F)c2cc(NC(=O)N3CCCC3)ccc21 [Example 6, N-[5-(o-fluorophenyl)-2,3-dihydro-1-methyl-2-oxo-1H-1,4-benzodiazepin-7-yl]-1-pyrrolidinecarboxamide]	112		308		184		> 5000	
CN1C(=O)CN=C(c2ccccc2F)c2cc(NC(=O)NCCO)ccc21 [Example 7, 1-[5-(o-fluorophenyl)-2,3-dihydro-1-methyl-2-oxo-1H-1,4-benzodiazepin-7-yl]-3-(2-hydroxyethyl)urea]							> 5000	response vs control in vivo at 0.1 mg/kg (aldosterone; [4]): 121%; response vs control in vivo at 0.1 mg/kg (aldosterone; [5]): 247%; response vs control in vivo at 0.1 mg/kg (aldosterone; [6]): 85%
CNC(=O)Nc1ccc2c(c1Cl)C(c1ccccc1F)=NCC(=O)N2C [Example 9, 1-[6-chloro-5-(o-fluorophenyl)-2,3-dihydro-1-methyl-2-oxo-1H-1,4-benzodiazepin-7-yl]-3-methylurea]	91		330		178		1250 to 2500	
CCCCNC(=O)Nc1ccc2c(c1Cl)C(c1ccccc1F)=NCC(=O)N2C [Example 10, 1-butyl-3-[6-chloro-5-(o-fluorophenyl)-2,3-dihydro-1-methyl-2-oxo-1H-1,4-benzodiazepin-7-yl]urea]	104		380		175		> 5000	
CCN(CC)C(=O)Nc1ccc2c(c1Cl)C(c1ccccc1F)=NCC(=O)N2C [Example 11, 3-[6-chloro-5-(o-fluorophenyl)-2,3-dihydro-1-methyl-2-oxo-1H-1,4-benzodiazepin-7-yl]-1,1-diethylurea]		110		236		124	> 5000	
CCN(C)C(=O)Nc1ccc2c(c1Cl)C(c1ccccc1F)=NCC(=O)N2C [Example 12, 3-[6-chloro-5-(o-fluorophenyl)-2,3-dihydro-1-methyl-2-oxo-1H-1,4-benzodiazepin-7-yl]-1-ethyl-1-methylurea]	118		278		136		2500 to 5000	
CN1C(=O)CN=C(c2ccccc2F)c2c1ccc(NC(=O)NCCO)c2Cl [Example 13, 1-[6-chloro-5-(o-fluorophenyl)-2,3-dihydro-1-methyl-2-oxo-1H-1,4-benzodiazepin-7-yl]-3-(2-hydroxyethyl)urea]	110		242		140		> 5000	
CN(C)C(=O)Nc1ccc2c(c1)C(c1ccccc1F)=NCC(=O)N2C [Example 32, 3-[5-(o-fluorophenyl)-2,3-dihydro-1-methyl-2-oxo-1H-1,4-benzodiazepin-7-yl]-1,1-dimethylurea]		91		190		102	> 5000	
COc1ccc(NC(=O)Nc2ccc3c(c2)C(c2ccccc2F)=NCC(=O)N3C)cc1 [Example 33, 1-[5-(o-fluorophenyl)-2,3-dihydro-1-methyl-2-oxo-1H-1,4-benzodiazepin-7-yl]-3-(p-methoxyphenyl)urea]		145		240		117	> 5000	
CCNC(=O)Nc1ccc2c(c1Cl)C(c1ccccc1F)=NCC(=O)N2C [Example 34, 1-[6-chloro-5-(o-fluorophenyl)-2,3-dihydro-1-methyl-2-oxo-1H-1,4-benzodiazepin-7-yl]-3-ethylurea]		149		271		156	2500 to 5000	
C[C@]12CCC(=O)C=C1CC[C@@H]1[C@@H]2[C@@H](O)C[C@]2(C=O)[C@@H](C(=O)CO)CC[C@@H]12 [aldosterone, reference compound]								excreted urine volume (aldosterone; [7]): reduction of the excreted urine volume; potassium excretion (aldosterone; [7]): increased potassium excretion; sodium excretion (aldosterone; [7]): pronounced reduction of the sodium excretion
